Data published in US12612424B2, “HPK1 inhibitors and uses thereof” (Regor Pharmaceuticals, Inc., priority 2019, dated 2026).
Read-outs that look alike come from different tables or passages of the source.

Molecular target: HPK1 (Homo sapiens, UniProt Q92918)
Test: HPK1 biochemical assay (ADP-GLO Kinase Assay)
How it was run: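 HPK1 (0.6 ng/μL final) activity was followed with MBP substrate and 10 μM ATP in Tris pH 7.5/MgCl2/BSA/DTT buffer, measured by ADP-Glo luminescence. Compounds were tested as 3-fold dilutions from 10 μM. IC50 came from a three-parameter logistic fit, with inhibition normalised to high/low controls.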

[1] = B*: testing performed in a first testing facility, read-out: HPK1 IC50 (nM) Relative, B*
[2] = N*: testing performed in a second testing facility, read-out: HPK1 IC50 (nM) Relative, N*

HPK1, sequence (Q92918 whole entry): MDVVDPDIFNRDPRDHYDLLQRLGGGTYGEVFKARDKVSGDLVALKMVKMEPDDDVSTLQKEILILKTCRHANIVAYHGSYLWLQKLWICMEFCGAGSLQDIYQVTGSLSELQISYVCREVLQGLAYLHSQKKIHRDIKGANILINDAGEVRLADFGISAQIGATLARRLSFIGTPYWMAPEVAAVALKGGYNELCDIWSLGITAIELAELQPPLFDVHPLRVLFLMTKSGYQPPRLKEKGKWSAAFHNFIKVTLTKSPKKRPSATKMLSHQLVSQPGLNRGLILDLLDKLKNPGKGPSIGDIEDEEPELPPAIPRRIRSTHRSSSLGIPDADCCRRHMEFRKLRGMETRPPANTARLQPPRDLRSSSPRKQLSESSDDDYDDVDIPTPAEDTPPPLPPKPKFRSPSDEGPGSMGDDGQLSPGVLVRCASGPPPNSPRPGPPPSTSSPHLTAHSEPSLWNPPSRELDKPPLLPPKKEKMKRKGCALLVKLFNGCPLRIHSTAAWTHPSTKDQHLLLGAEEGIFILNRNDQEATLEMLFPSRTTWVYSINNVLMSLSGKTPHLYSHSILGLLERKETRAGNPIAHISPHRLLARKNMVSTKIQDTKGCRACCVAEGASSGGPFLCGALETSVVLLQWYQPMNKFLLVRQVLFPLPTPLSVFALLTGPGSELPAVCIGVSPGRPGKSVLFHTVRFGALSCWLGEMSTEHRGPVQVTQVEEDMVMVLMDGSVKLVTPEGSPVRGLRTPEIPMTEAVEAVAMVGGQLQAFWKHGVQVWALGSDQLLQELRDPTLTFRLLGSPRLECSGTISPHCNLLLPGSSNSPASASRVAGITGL

SMILES	IC50 [1]	IC50 [2]
COc1cc2c(cc1Nc1ncc(Cl)c(-n3ncc4ccccc43)n1)CN(C)CC2 [Example 24, N-(5-Chloro-4-(1H-indazol-1-yl)pyrimidin-2-yl)-6-methoxy-2-methyl-1,2,3,4-tetrahydroisoquinolin-7-amine]	≤ 100 nM	–
COc1nc2c(cc1Nc1ncc(Cl)c(N3CCc4ccccc43)n1)CN(C)CC2 [Example 19, N-(5-chloro-4-(indolin-1-yl)pyrimidin-2-yl)-2-methoxy-6-methyl-5,6,7,8-tetrahydro-1,6-naphthyridin-3-amine]	≤ 100 nM	≤ 100 nM
COc1cc2c(cc1Nc1ncc(Cl)c(N3CCc4cc(F)ccc43)n1)CN(C)CC2 [Example 20, N-(5-chloro-4-(5-fluoroindolin-1-yl)pyrimidin-2-yl)-6-methoxy-2-methyl-1,2,3,4-tetrahydroisoquinolin-7-amine]	≤ 100 nM	–
COc1nc2c(cc1Nc1ncc(Cl)c(N3CCc4ncccc43)n1)CN(C)CC2 [Example 29, N-(5-Chloro-4-(2,3-dihydro-1H-pyrrolo[3,2-b]pyridin-1-yl)pyrimidin-2-yl)-2-methoxy-6-methyl-5,6,7,8-tetrahydro-1,6-naphthyridin-3-amine]	≤ 100 nM	≤ 100 nM
COc1cc2c(cc1Nc1ncc(Cl)c(N3CC(C)(C)c4ccccc43)n1)CN(C)CC2 [Example 25, N-(5-Chloro-4-(3,3-dimethylindolin-1-yl)pyrimidin-2-yl)-6-methoxy-2-methyl-1,2,3,4-tetrahydroisoquinolin-7-amine]	≤ 100 nM	–
COc1cc2c(cc1Nc1ncc(Cl)c(N3CCc4ccc(F)cc43)n1)CN(C)CC2 [Example 21, N-(5-chloro-4-(6-fluoroindolin-1-yl)pyrimidin-2-yl)-6-methoxy-2-methyl-1,2,3,4-tetrahydroisoquinolin-7-amine]	≤ 100 nM	–
COc1cc2c(cc1Nc1ncc(Cl)c(-n3cc(P(C)(C)=O)c4ccccc43)n1)CN(C)CC2 [Example 1, (1-(5-Chloro-2-((6-methoxy-2-methyl-1,2,3,4-tetrahydroisoquinolin-7-yl)amino)pyrimidin-4-yl)-1H-indol-3-yl)dimethylphosphine oxide]	≤ 100 nM	≤ 100 nM
COc1cc2c(cc1Nc1ncc(Cl)c(N3CCc4ccccc43)n1)CNCC2 [Example 23, N-(5-chloro-4-(indolin-1-yl)pyrimidin-2-yl)-6-methoxy-1,2,3,4-tetrahydroisoquinolin-7-amine]	≤ 100 nM	–
COc1cc2c(cc1Nc1ncc(Cl)c(N3CCc4ccccc43)n1)CN(C(C)C)CC2 [Example 22, N-(5-chloro-4-(indolin-1-yl)pyrimidin-2-yl)-2-isopropyl-6-methoxy-1,2,3,4-tetrahydroisoquinolin-7-amine]	≤ 100 nM	–

The remaining lines, values ahead:

IC50 [1]	IC50 [2]	SMILES
≤ 100 nM	–	COc1cc2c(cc1Nc1ncc(Cl)c(-n3cc(C(=O)O)c4ccccc43)n1)CN(C)CC2 [Example 35]
≤ 100 nM	–	COc1cc2c(cc1Nc1ncc(Cl)c(N3CC(C(N)=O)c4ccccc43)n1)CN(C)CC2 (centres unmarked) [Example 33, 1-(5-Chloro-2-((6-methoxy-2-methyl-1,2,3,4-tetrahydroisoquinolin-7-yl)amino)pyrimidin-4-yl)indoline-3-carboxamide]
≤ 100 nM	–	COc1cc2c(cc1Nc1ncc(Cl)c(-n3cc(C(N)=O)c4ccccc43)n1)CN(C)CC2 [Example 34]
≤ 100 nM	–	COc1cc2c(cc1Nc1ncc(Cl)c(N3CC(C(=O)O)c4ccccc43)n1)CN(C)CC2 (centres unmarked) [Example 32, 1-(5-Chloro-2-((6-methoxy-2-methyl-1,2,3,4-tetrahydroisoquinolin-7-yl)amino)pyrimidin-4-yl)indoline-3-carboxylic acid]
≤ 100 nM	≤ 100 nM	COc1cc2c(cc1Nc1ncc3ccn(-c4ccccc4)c3n1)CN(C)CC2 [Example 36, 6-methoxy-2-methyl-N-(7-phenyl-7H-pyrrolo[2,3-d]pyrimidin-2-yl)-1,2,3,4-tetrahydroisoquinolin-7-amine]
≤ 100 nM	≤ 100 nM	COc1cc2c(cc1Nc1ncc3ccn(-c4ccccn4)c3n1)CN(C)CC2 [Example 37, 6-Methoxy-2-methyl-N-(7-(pyridin-2-yl)-7H-pyrrolo[2,3-d]pyrimidin-2-yl)-1,2,3,4-tetrahydroisoquinolin-7-amine]
